One experiment addresses T1, human OTR (Homo sapiens, UniProt P30559).
T1 construct: expressed in transfected cells
T1 sequence (P30559 1-389): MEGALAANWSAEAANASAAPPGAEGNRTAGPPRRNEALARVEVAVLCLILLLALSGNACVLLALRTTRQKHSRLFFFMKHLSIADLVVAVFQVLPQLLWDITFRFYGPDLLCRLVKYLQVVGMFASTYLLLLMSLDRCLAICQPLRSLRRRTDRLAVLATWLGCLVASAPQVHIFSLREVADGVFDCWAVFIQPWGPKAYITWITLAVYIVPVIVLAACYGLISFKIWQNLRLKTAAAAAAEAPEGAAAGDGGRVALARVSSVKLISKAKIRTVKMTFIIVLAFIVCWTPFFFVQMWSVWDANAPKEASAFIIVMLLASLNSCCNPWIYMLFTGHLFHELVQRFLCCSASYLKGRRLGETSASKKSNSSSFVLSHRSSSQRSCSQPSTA
Briefly: Inhibition activity on human OTR (Fluo-4 calcium assay, HEK293/human OTR stably transfected cells, oxytocin 3 nM). The experiment is classed as cell-based. As to conditions: calcium signal. The method, then:
The inhibition effect of the compounds of the present invention on the activity of human OTR protein expressed in HEK293/human OTR stably transfected cells was determined by the following experimental method:
The pcDNA3.1-hOTR plasmid was transferred into HEK293 cells with the Lipofectamine® 3000 transfection reagent; G418 was added on the next day to screen, and monoclonal cell lines were selected.
(§1) HEK293/human OTR stably transfected cells were inoculated in a 96-well plate with an inoculation density of 25,000 cells/well one day in advance. On the next day, a loading buffer containing Fluo-4 dye was formulated using the reagents in the Fluo-4 NW calcium assay kit, and the culture medium was then removed; 100 μl of the loading buffer containing Fluo-4 dye were added to each well, and the plate was incubated at 37° C. for 30 minutes. After that, the plate was moved to room temperature and equilibrated for 10 minutes. The compounds were formulated into concentration gradients of 10^6, 10^5, 10^4, 10^3, 10^2 and 10^1 nM. 1 μl of the compounds in each concentration was added to each well, and the plate was incubated at room temperature for 10 minutes. 50 μl of oxytocin polypeptide (3 nM) were automatically added by the machine, and the values were immediately detected at 494/516 nM by the flexstation 3 microplate reader. IC50 values of the compounds were calculated by Graphpad prism software using fluorescence signals corresponding to different concentrations.
The inhibition activity of the compounds of the present invention on human OTR was determined by the above test, and the obtained IC50 values are shown in Table 1.

A further experiment concerns the target T2, human V1bR (Homo sapiens, UniProt P47901).
T2 construct: expressed in transfected cells; host or cells: HEK293 (G418-selected pool)
T2 sequence (P47901 1-424): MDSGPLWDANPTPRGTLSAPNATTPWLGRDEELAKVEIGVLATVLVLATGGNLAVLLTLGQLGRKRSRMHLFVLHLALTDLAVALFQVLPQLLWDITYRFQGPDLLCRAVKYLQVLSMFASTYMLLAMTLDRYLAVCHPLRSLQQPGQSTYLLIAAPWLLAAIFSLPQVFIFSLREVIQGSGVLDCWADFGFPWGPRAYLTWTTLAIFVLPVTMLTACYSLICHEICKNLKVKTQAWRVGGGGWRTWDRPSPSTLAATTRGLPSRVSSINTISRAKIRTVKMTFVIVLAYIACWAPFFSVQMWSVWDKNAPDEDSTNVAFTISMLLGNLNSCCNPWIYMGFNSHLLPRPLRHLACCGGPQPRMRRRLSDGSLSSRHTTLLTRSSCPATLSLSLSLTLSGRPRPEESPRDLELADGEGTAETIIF
Briefly: Inhibition activity on human V1bR (Fluo-4 calcium assay, HEK293/human V1bR pool cells, vasopressin 3 nM). The experiment is classed as cell-based. As to conditions: calcium signal. The method, then:
The inhibition effect of the compounds of the present invention on the activity of human V1bR protein expressed in HEK293/human V1bR cells was determined by the following experimental method:
The pcDNA3.1-V1bR plasmid was transferred into HEK293 cells with the Lipofectamine® 3000 transfection reagent; G418 was added on the next day, and the HEK293/human V1bR pool cell lines were obtained.
as §1, with “V1bR pool” for “OTR stably transfected”, “50 μl of oxytocin polypeptide (3 nM) were automatically added by the machine, and the values were immediately detected at 494/516 nM by the flexstation 3 microplate reader.” left out

pIC50: −log10 of the molar value.

With `COc1ccc(-n2c(COCCF)nnc2N2C[C@@H]3C[C@]3(c3ccc(F)cc3Cl)C2)cn1` [Example 1, (1S,5R)-1-(2-Chloro-4-fluorophenyl)-3-(5-((2-fluoroethoxy)methyl)-4-(6-methoxypyridin-3-yl)-4H-1,2,4-triazol-3-yl)-3-azabicyclo[3.1.0]hexane], the pIC50 on human OTR was 7.36; at human V1bR, 4.61.

With `COCc1nnc(N2C[C@@H]3C[C@]3(c3cccc(F)c3Cl)C2)n1-c1ccc(OC)nc1` [Example 4, (1S,5R)-1-(2-Chloro-3-fluorophenyl)-3-(5-(methoxymethyl)-4-(6-methoxypyridin-3-yl)-4H-1,2,4-triazol-3-yl)-3-azabicyclo[3.1.0]hexane], the negative logarithm of the IC50 (pIC50) was 7.54 at human OTR and 4.23 on human V1bR.

On to `CCOCc1nnc(N2C[C@@H]3C[C@]3(c3ccc(F)cc3Cl)C2)n1-c1ccc(OC)nc1` [Example 6, (1S,5R)-1-(2-Chloro-4-fluorophenyl)-3-(5-(ethoxymethyl)-4-(6-methoxypyridin-3-yl)-4H-1,2,4-triazol-3-yl)-3-azabicyclo[3.1.0]hexane], for which the pIC50 on human OTR was 8.37; at human V1bR, 4.55.

Regarding `COCc1nnc(N2C[C@@H]3C[C@]3(c3ccc(F)cc3Cl)C2)n1-c1ccc(OC)nc1` [Example 9, (1S,5R)-1-(2-Chloro-4-fluorophenyl)-3-(5-(methoxymethyl)-4-(6-methoxypyridin-3-yl)-4H-1,2,4-triazol-3-yl)-3-azabicyclo[3.1.0]hexane], the results for the pIC50 at human OTR and at human V1bR were 7.85 and 4.42, respectively.

Take `COc1ccc(-n2c(N3C[C@@H]4C[C@]4(c4ccc(F)cc4Cl)C3)nnc2C(F)(F)F)cn1` [Example 12, (1S,5R)-1-(2-Chloro-4-fluorophenyl)-3-(4-(6-methoxypyridin-3-yl)-5-(trifluoromethyl)-4H-1,2,4-triazol-3-yl)-3-azabicyclo[3.1.0]hexane]: the negative logarithm of the IC50 (pIC50) on human OTR is 7.52; at human V1bR, 4.93.

Source of the values: patent publication US20210040073A1, “AZABICYCLO-SUBSTITUTED TRIAZOLE DERIVATIVE, PREPARATION METHOD THEREOF, AND APPLICATION OF SAME IN MEDICINE” (Jiangsu Hengrui Medicine Co., Ltd., priority 2016, published 2021).
